According to PubChem BioAssay (NCI):
“And” between values parts separate entries of the source, which are not always exact repeats. Equal entries are not always repeated.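 Exposure lasted 48 hours, with cells grown in 96-well plates and compounds tested at five concentrations. Definition used: TGI = concentration required for complete inhibition of growth.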

Tests used:
Assay in all cases: NCI anticancer screen, dose series, 48 h
ACHN renal = tested on: ACHN renal
DU-145 prostate = tested on: DU-145 prostate
NCI-H23 lung = tested on: NCI-H23 lung
NCI-H460 lung = tested on: NCI-H460 lung
OVCAR-5 ovarian = tested on: OVCAR-5 ovarian
SF-295 CNS = tested on: SF-295 CNS
SNB-19 CNS = tested on: SNB-19 CNS
SW-620 colon = tested on: SW-620 colon
T-47D breast = tested on: T-47D breast
UACC-257 melanoma = tested on: UACC-257 melanoma

| Structure (SMILES) | TGI (ACHN renal) [µM] | TGI (DU-145 prostate) [µM] | TGI (NCI-H23 lung) | TGI (NCI-H460 lung) | TGI (OVCAR-5 ovarian) | TGI (SF-295 CNS) | TGI (SNB-19 CNS) | TGI (SW-620 colon) | TGI (T-47D breast) [µM] | TGI (UACC-257 melanoma) |
| --- | --- | --- | --- | --- | --- | --- | --- | --- | --- | --- |
| Clc1ccc(-c2nc(-c3ccc(Cl)cc3)[s+]s2)cc1 | > 100 | > 100 | > 100 µM | > 100 µM | > 100 µM | > 100 µM | > 100 µM | > 100 µM | > 100 | > 100 µM |
| c1ccc2c(c1)SC1Sc3ccccc3[S+]21 (stereo not given) | 20.4 | > 76.3 | 37.4 µM | > 70.7 µM | > 100 µM | > 100 µM | > 100 µM | > 76.7 µM | > 100 | 33.8 µM |
| CCCCCc1c(CCCC)c(=O)[nH]c2cc(CNCC(OC)OC)ccc12 | 27.8 | 28 | 32.8 µM | 23.9 µM | 28 µM | 32.2 µM | 26.2 µM | 16.3 µM | 31.8 | 16.2 µM |
| NC1CCC(c2cc3ccccc3s2)(N2CCCCC2)CC1 (stereo not given) | 12.5 | 16.4 | 3.23 µM | 3.06 µM | 6.23 µM | 12.7 µM | 26.8 µM | 3.2 µM | 5.51 | 3.44 µM |
| Cn1c(N/N=C/c2ccc(Cl)cc2)nc(-c2ccc(Cl)cc2)c(C#N)c1=O | > 100 | 46.1 | 38.6 µM | > 100 µM | 51.1 µM | 41.5 µM | > 100 µM | > 100 µM | > 100 | > 100 µM |
| CCCCCC(C)C[C@H]1CO[C@H](c2ccc[nH]2)N[C@H]1C(=O)OC (stereo not given in full) | > 100 | > 100 | > 100 µM | > 100 µM | > 100 µM | > 100 µM | > 100 µM | > 100 µM | > 100 | > 100 µM |
| Cc1nc2ccccc2n1CCc1nc2ccccc2s1 | > 100 | > 100 | > 100 µM | > 100 µM | > 100 µM | > 100 µM | > 100 µM | > 100 µM | > 100 | > 100 µM |
| CN(C)CCCOC(=O)C(O)(Cc1ccccc1)C1CC1 (stereo not given) | > 100 | > 100 | > 100 µM | > 100 µM | > 100 µM | > 100 µM | > 100 µM | > 100 µM | > 100 | > 100 µM |
| CC[C@H]1C=CCC[C@@]2(C[C@@H]3CC[C@@H]4[C@H](C(=O)OCCCCCCCCCCCCCCCC(=O)N(CCCN)C[C@@H](O)CCN)[C@]5(CCC[C@@H](C)O5)NC(=[N+]34)N2)O1 | > 4.73 | > 10 | 2.87 µM | 2.15 µM | 4.39 µM | 3.52 µM | 1.27 µM | 3.87 µM | 5.56 | 0.573 µM |
| COC(=O)/C=C1/OC(c2ccccc2)=C(Cl)C1=O | 33 | > 76.2 | 39.4 µM | > 77.6 µM | 35.6 µM | > 65.1 µM | > 66.9 µM | 41.6 µM | > 56.6 | 66 µM |
| N#CC(c1ccccc1)c1cccc2ccccc12 (stereo not given) | > 100 | > 100 | > 100 µM | > 100 µM | > 100 µM | > 100 µM | > 100 µM | > 100 µM | > 100 | 67.3 µM |
| CCn1c2c(c3c(C(=O)OC)c(O)ccc31)C(=O)c1ccccc1C2=O | 21.9 | 38.9 | 48.7 µM | 27.9 µM | 42.5 µM | 47.1 µM | > 100 µM | 33.8 µM | 33 | > 100 µM |
| CC1CC[C@]2(C(=O)O)CCC3(C)C(=C2[C@H]1C)C=CC1[C@@]2(C)CC[C@H](O)C(C)(C)C2CC[C@]13C (stereo not given in full) | 48.2 | 42.4 | > 100 µM | > 100 µM | > 100 µM | 47 µM | > 100 µM | > 100 µM | 58.9 | > 100 µM |
| CC(=O)C(=C(I)I)c1ccccc1 | 35.2 | 60.4 | 36.2 µM | > 100 µM | 45.7 µM | 50.1 µM | 37.2 µM | 38.7 µM | 50.4 | 32.7 µM |
| CN(C)Cc1cc(C(=O)O)cc(CN(C)C)c1O | > 100 | > 100 | > 100 µM | > 100 µM | > 100 µM | > 100 µM | > 100 µM | > 100 µM | > 100 | > 100 µM |
| Fc1cccc2nc(-c3ccccc3)cc(OCc3ccccc3)c12 | > 100 | > 100 | > 100 µM | > 100 µM | > 100 µM | > 100 µM | > 100 µM | > 100 µM | > 100 | > 100 µM |
| c1ccc(N=NNNc2ccc(-c3nc4ccccc4[nH]3)cc2)cc1 | > 100 | > 100 | > 100 µM | > 100 µM | > 100 µM | 68 µM | > 100 µM | > 100 µM | 39.1 | > 100 µM |
| COc1cc2[nH]c(-c3ccccc3)cc(=O)c2cc1OC | > 100 | > 100 | > 84.6 µM | > 66.6 µM | > 100 µM | > 100 µM | > 100 µM | > 100 µM | > 100 | > 100 µM |
| C=C[C@H]1CN2CC[C@H]1C[C@@H]2[C@@H](O)c1ccnc2ccccc12 | > 100 | > 100 | > 100 µM | > 100 µM | > 100 µM | > 100 µM | > 100 µM | > 100 µM | > 100 | > 100 µM |
| COc1cc2c(cc1OCCCC(=O)Nc1cc(C(=O)Nc3cc(C(=O)NCCCN(C)C)n(C)n3)n(C)n1)N=CC1CCCN1C2=O (stereo not given) | 29.7 | 32.2 | 39.1 µM | > 100 µM | 37.7 µM | > 100 µM | 34.2 µM | 29.2 µM | 53 | 35.2 µM |
| O=C(c1cccs1)N(C(=O)N1CCC(c2ccccc2)CC1)c1ccccc1 | > 100 | > 100 | > 100 µM | > 100 µM | > 100 µM | > 100 µM | > 100 µM | > 100 µM | 93.5 | > 100 µM |
| CC(=O)O[C@H]1/C(=C/c2ccc(N(C)C)cc2)C[C@H]2[C@@H]3CC=C4C[C@@H](N5CCCC5)CC[C@]4(C)[C@H]3CC[C@]12C | > 100 | > 100 | > 100 µM | > 100 µM | > 100 µM | > 100 µM | > 100 µM | > 100 µM | > 100 | > 100 µM |
| CC(=O)Oc1ccc2c(c1)CC[C@@H]1C2[C@@H](O[N+](=O)[O-])C[C@@]2(C)C1CC[C@@H]2O (stereo not given in full) | > 100 | > 87.2 | > 100 µM | > 89.1 µM | > 71.8 µM | > 100 µM | > 100 µM | > 100 µM | > 100 | > 100 µM |
| Cc1c2cc[n+](C)cc2c(C)c2c1[nH]c1ccccc12 | > 100 | 24.9 | 4.8 µM and 6.39 µM | 12.3 µM and 11.8 µM | 56.6 µM and 61.1 µM | 1.71 µM and 2.08 µM | 1.09 µM and 1.3 µM | 54.6 µM and 47.5 µM | 0.832 | 37.5 µM and 43.2 µM |
| CN(C)c1ccc(C(c2ccc(N(C)C)cc2)c2ccc([N+](=O)[O-])cc2)cc1 | > 100 | > 100 | > 100 µM | > 100 µM | > 100 µM | > 100 µM | > 100 µM | > 100 µM | > 100 | > 100 µM |
| COc1ccc2nc3c([N+](=O)[O-])ccc4c3c(c2c1)NCCN4C | 5.92 | 6.92 | 6.39 µM | 1.48 µM | 23 µM | 7.58 µM | 8.77 µM | 4.76 µM | 7.73 | 10.1 µM |
| CC1(C)CCOC(=O)C(Cl)CC1Cl (stereo not given) | > 100 | > 100 | > 100 µM | > 100 µM | > 100 µM | > 100 µM | > 100 µM | > 100 µM | > 100 | > 100 µM |
| NNC(=O)c1ccccc1NC(=O)/C(=C/c1ccccc1)NC(=O)c1ccccc1 | > 100 | > 100 | > 100 µM | > 100 µM | > 100 µM | > 100 µM | > 100 µM | > 100 µM | > 100 | > 100 µM |
| Cc1ccc2c3c1O[C@H]1c4nc5ccccc5cc4C[C@@]4(O)[C@@H](C2)N(CC2CC2)CC[C@]314 | 23.4 | 69 | 67.7 µM | 35.8 µM | 25.8 µM | 20.8 µM | > 100 µM | 18.3 µM | 32.2 | 41.1 µM |
| O=C1CSC2(CCN(CCCN3c4ccccc4Sc4ccc(Cl)cc43)CC2)N1 | 23.7 | 24.2 | 24.1 µM | 15.2 µM | 24.3 µM | 22 µM | 26 µM | 23.6 µM | 15.6 | 22 µM |
